The record followed here is patent US9259432B1, “Composition and methods for targeted delivery of a therapeutic compound to the brain or spinal cord of a subject for treatment of neurodegenerative diseases” (Parminder J. S. Vig, priority 2011, dated 2016).

The nature of series [1]: IgG levels in plasma by ELISA. It is filed as in vivo, mice. Conditions: 100 mg/kg, treated multiple times, no heat; samples diluted 1:50,000. As to the method: IgG levels in plasma of mice treated withof SynB1-ELP-GGC (100 mg/kg) and SynB1-ELP-TRTK (100 mg/kg) were obtained. Mice were treated multiple times without induction of hyperthermia. IgG levels were measured using ELISA. Samples were diluted 1:50,000 and compared against a standard curve generated using a mouse IgG standard.
(In general: An ELISA detects its analyte on a solid surface through an enzyme-linked reagent.)

For series [2], the system named is SHSY5Y cells. Kind of series: 488-S100B uptake in SHSY5Y cells. Conditions: then 1 μM 488-S100B 3 hrs. Type of series: cell-based. As to the method: FIG. 14: (a) WT SHSY5Y cells were placed on chamber slides and pretreated with 50 μM Synb1-ELP-TRTK or Synb1-ELP-GGC for 1 hr at 37° C. Next, cells were washed then treated with 1 μM 488-S100B for 3 hrs followed by washing, fixation and DAPI staining. Shown is DAPI nuclear stain in blue and 488-S100B in green. Scale bar: 10 μm. (b) SHSY5Y cells were placed on 6-well plates and pretreated with 50 μM Synb1-ELP-TRTK12 or Synb1-ELP-GGC for 1 hr at 37° C. then treated with 1 μM 488-S100B for 3 hrs, then cells were removed and 488-S100B uptake was measured using flow cytometry. Data is shown as MEAN±STDEV of the % Uptake relative to the control. Statistics were taken using student's t-test. *P<0.05.
SHSY5Y cells (Invitrogen, Carlsbad, Calif., USA) were maintained in DMEM/F12 media (Fisher, Houston, Tex., USA) supplemented with 15% FBS, penicillin-streptomycin (Sigma), and grown in an incubator at 37° C. in the presence of 5% CO2. […] Next, cells were washed then treated with 1 μM 488-S100B for 3 hrs and S100B uptake was analyzed by Epi-fluorescence or by Beckman Cytometric FC 500 flow cytometer as previously described (Bidwell et al., 2009). For flow cytometry experiments, 488-S100B uptake was measured by quenching extracellular fluorescence by coating the cells with Trypan Blue (Fisher) as described previously (Bidwell et al., 2009). […]

The subject of series [3] is SCA1/+ mice. Put plainly: Bar cross test. It is filed as in vivo. As to conditions: IP, 10 doses every other day for 3 wks, with and without heat. As for the experimental part:
A minimum of five 2 wks old SCA1/+mice were treated IP with vehicle (saline), ELP-GGC or ELP-TRTK peptides multiple times (total 10 doses) every other day for 3 wks. Some animals were subjected to hyperthermia. After completion of the treatments, animals were subjected to behavioral tests.
Bar cross test. The bar-crossing apparatus for testing balance and fine motor coordination consisted of a horizontal U-shaped platform made of wood supported on 30 cm legs. The two parallel 30-cm-long bars of the U were wide enough (18 mm) for the mice to walk easily, whereas the piece connecting them, the challenge bar, was also 30 cm long but only 2 mm wide. Animals were placed on one of the wide bars and allowed to move about on the apparatus for 5 min. After the spontaneous activity portion of the bar cross test, animal were subjected to a forced task. In this task, the mice were placed in the middle of the challenge bar in order to force a crossing attempt. A maximum of 120 sec was allowed for mice to stay on the bar, and the latency to fall (on a padded surface; height=30 cm) or cross (Cross) successfully was measured in seconds. The surface of the apparatus was cleaned with mild soap solution and air-dried between mice. […]

“Synb1-ELP-TRTK: thermally responsive S100B inhibitory polypeptide: Synb1 cell penetrating peptide, elastin-like polypeptide (ELP) and TRTK12 peptide fused”: the “IgG level in plasma, OD Value” in series [1] came out at 0.2552. In series [2] (50 μM pretreatment 1 hr at 37° C.), the “488-S100B uptake, epi-fluorescence” value is listed as “reduced 488-S100B cellular uptake”. Besides, the “488-S100B uptake, flow cytometry” value in series [2] (50 μM pretreatment 1 hr, vs Control and Synb1-ELP-GGC pretreated cells) was “significantly reduced 488-S100B uptake”. Besides, the “hyperactivity, slip frequency, Sniff Up and down frequency” value in series [3] is “suppresses these activities”.
